From patent US20050153870A1, “Medicinal composition for diagnosis, prevention, or therapy of multiple risk factor syndrome” (priority 2002, published 2005)
Marks after values point to notes of the source that are not given here.

Columns and labels:
[1] = system: Mouse, rat, beagle dog, quail, DOCA hypertension rat; assay: Serum cholesterol decreasing effect; type: in vivo; conditions: incl. rat and quail raised with hyperfat feed
Experimental: The quails are raised by giving a feed containing 2% cholesterol for 9 months to develop hypercholesteremia, and, in the case of the rats, mineral corticoid and saline are administered to allow them to develop heart and blood vessel disease and then hypercholesteremia.

Lean = assay: Body weight and blood sugar in Lean mice (Example 7); type: in vivo, mouse; conditions: for Body weight / Blood sugar level: in feed for a week (MAC 0.05%, AS-103 0.05%, AR-610 0.1%, AF 0.4%, AC 0.05%); for Body weight: control group 20.9 ± 0.8; for Blood sugar level: control group 211.2 ± 7.8; for Blood sugar level, change vs control group / Body weight, change vs control group: in feed for a week, contents as in table
Experimental: [The procedure below names another variant; the source lists this variant under the same test.] (§1) Powered feed to which ascofuranone (AF) and ascochlorin (AC) as well as its derivatives, 4-0-methylascochlorin (MAC), 4-0-carboxymethylascochlorin (AS-6), and 4-0-nicotinoyl ascochlorin (AS-103) were added to feed at the proportions shown in the table, and the feed were given to db/db mice for a week and then analyzed for blood sugar decreasing effect (8 mice/group).

Mouse, db/db mouse = assay: Serum insulin decreasing effect; type: in vivo; conditions: about 0.1% added to feed
DOCA hypertension rat [2] = assay: Periarteritis nodosa; type: in vivo; conditions: 50 mg/kg perorally, DOCA/saline administered rat having one of the kidneys excised out
Experimental: Rats having a cardiovascular disease due to hypertension, often develop periarteritis nodosa, which is typical blood-vessel inflammation caused in thin and small artery such as mesenteric artery. […] These are preventive effects. […] To explain more specifically, mineral corticoid is administered to rats having one of the kidneys excised out and raised for a month by giving saline as drinking water. After confirming onset of periarteritis nodosa, administration of mineral corticoid and saline is stopped and the rats are brought back under normal feeding conditions. As a result, the blood pressure of the rats gradually decreases near a normal value and periarteritis nodosa heals and disappears.

quail = assay: Arteriosclerosis suppressing effect, quail on cholesterol feed; type: in vivo; conditions: poultry feed containing 2% of cholesterol, 9 months, 0.0125 to 0.2% added to feed
Text: (§2) As to prevention/therapy of arteriosclerosis, a big difference is observed in effect between medicaments conceivably effective in improving arteriosclerosis, such as fibrate series medicament, thiazolidine series medicament, probucol, and statin series medicament and a compound of the present invention.

DOCA hypertension rat [3] = assay: Hypercardia, thickened arteries, edema in organs; type: in vivo
Text: as §2

[4] = system: patients with type II diabetes; assay: Glucose tolerance test in Clinical test II; type: in vivo, human; conditions: 50 g of glucose perorally at fasting; after therapy of 12 weeks vs before; 30 patients
Experimental: A glucose tolerance test were performed by perorally taking 50 g of glucose at fasting time in the early morning and measuring concentrations of blood sugar and urine sugar with time. A solid line represents the results immediately before therapy and a broken line represents immediately after the therapy of 12 weeks. Since a process of a glucose tolerance test more or less varied depending upon medical institutions, data of all patients (30 patients) with type II diabetes participated in this test in a single and the same institution are statistically analyzed and shown. […] Note that, in the FIGS. 2 and 3, numerical values each represent average value±standard deviation.

[5] = in vivo; cited from earlier work
db/db mice = assay: Blood sugar decreasing effect in db/db mice (Example 7); type: in vivo, mouse; conditions: for Body weight / Blood sugar level: in feed for a week (MAC 0.05%, AS-103 0.05%, AR-610 0.1%, AF 0.4%, AC 0.05%); for Body weight: control group 44.6 ± 0.9; for Blood sugar level: control group 549.8 ± 21.8; for Blood sugar level, change vs control group / Body weight, change vs control group: in feed for a week, contents as in table
Experimental: as §1

Zucker rats [6] = assay: AS-6 in feed to Zucker rats for 10 weeks (Example 5); type: in vivo, rat; conditions: 0.12% in feed
Experimental: Zucker rats were divided into two groups. One group was raised with commercially available feed to which 4-O-carboxymethylascochlorin (AS-6) was mixed up to a content of 0.12%. The other group and normal Lean-rat littermate group were raised for 10 weeks with the same commercially available feed containing no AS-6. Thereafter, body weight, white adipose cell weight, blood insulin, blood sugar, and blood lipid were measured (7 mice/group).

C57BL/6j-ob/ob mice = assay: AS-6 in feed to ob/ob mice (Example 3); type: in vivo, mouse; conditions: 0.1% in feed, 1 week
Experimental: C57BL/6j-ob/ob mice, which were model animals of multiple risk factor syndrome, were raised for a week with powered feed in which an ascochlorin derivative, 4-O-carboxymethylascochlorin (AS-6), was mixed in a content of 0.1%. Thereafter, the weight, blood sugar, blood insulin, and blood neutral fat were measured.

Zucker rats [7] = assay: Blood pressure of Zucker rat (Example 8); type: in vivo; conditions: for blood pressure, change vs Zucker control group / blood pressure: 0.1% in feed; for blood pressure: AS-6 group at 0th week 144 ± 6
Experimental: Zucker rats were raised for 4 weeks with feed in which 4-0-carboxylmethyl ascochlorin (AS-6) was mixed in a content of 0.1%. At the 0th, 2nd and 4th week of initiation of feeding, blood pressure was measured (6 rats/group).

Db/db mouse, Zucker rat = assay: Insulin sensitivity test; type: in vivo; conditions: feed containing 0.1% for one week, hereditary obese animal

With `COc1c(Cl)c(C)c(C=O)c(O)c1C/C=C(C)/C=C/[C@@]1(C)[C@H](C)CCC(=O)[C@@H]1C` [4-O-methylascochlorin] the “serum cholesterol decreasing effect” value [1] was “carboxymethylascochlorin, and ascofuranone exhibits an effect of decreasing serum”, the Body weight (Lean) was 21.3 ± 0.9 g and the Blood sugar level (Lean) was 223.1 ± 11.6 mg/dL. For the same compound, the “Blood sugar level, change vs control group” value (from here on “Blood sugar level, change”) (Lean) was “ns”, the “Body weight, change vs control group” value (Lean) was “ns” and the serum insulin (Mouse, db/db mouse) was “added in an amount of about 0.1% to feed and given to an animal, it decreases serum”. The Periarteritis nodosa (DOCA hypertension rat [2]) was “significantly suppressed. When ascofuranone is perorally administered to SHR of a”, the “atherosclerosis of the aorta, hypercholesterolemia, deposition of cholesterol onto the heart and the aorta” value (quail) was “the aforementioned changes are suppressed” and the “edema of various organs including the kidney” value (DOCA hypertension rat [3]) was “such as hypercardia and thickened arteries, and suppresses edema of various”. For the same compound, the “lesions associated with cardiovascular diseases such as hypercardia and thickened arteries” value (DOCA hypertension rat [3]) was 4-0-methylascochlorin alleviates lesions associated with cardiovascular diseases, the “blood sugar level in glucose tolerance test (FIG. 2)” value [4] was “significantly decreases blood sugar level” and the “urine sugar level in glucose tolerance test (FIG. 3)” value [4] was “significantly decreases the concentration of glucose contained in the urine”. The “distribution of the isotope-labeled compound” value [5] was “widely and specifically distributed in the adipose tissue as well as in the adrenal gland”, the “synthesis of steroid hormones (glucocorticoid+mineral corticoid) of adrenal cortex” value [5] was “regulates synthesis of steroid hormones” and the Body weight (db/db mice) was 45.5 ± 1.8 g. For the same compound, the Blood sugar level (db/db mice) was 478.0 ± 28.3 mg/dL, the “Blood sugar level, change” value (db/db mice) was −13.3%* and the “Body weight, change vs control group” value (db/db mice) was “ns”.

In the case of `CC(C=CC1(C)C(C)CCC(=O)C1C)=CCc1c(O)c(C=O)c(C)c(Cl)c1OCC(=O)O` (centres unmarked) [AS-6, 4-O-carboxymethylascochlorin], the “Blood sugar (full feeding), change vs Zucker control group” value (Zucker rats [6]) is reported as “ns”, the “Body weight, change vs Zucker control group” value (Zucker rats [6]) is reported as “ns” and the “Cholesterol, change vs Zucker control group” value (Zucker rats [6]) is reported as “ns”. The “Free fatty acid, change vs Zucker control group” value (Zucker rats [6]) was −50.0%, the “Insulin, change vs Zucker control group” value (Zucker rats [6]) was −23.4% and the “Neutral fat, change vs Zucker control group” value (Zucker rats [6]) was −49.8%. The “Phospholipid, change vs Zucker control group” value (Zucker rats [6]) was −14.3%, the “White adipose cells, change vs Zucker control group” value (Zucker rats [6]) was “ns” and the Free fatty acid (Zucker rats [6]; Zucker control 1.391 ± 0.110) was 0.696 ± 0.069. It also gave a White adipose cells (Zucker rats [6]; Zucker control 4.06 ± 0.09) of 3.66 ± 0.11, a Cholesterol (Zucker rats [6]; Zucker control 117.4 ± 4.8) of 123.6 ± 7.8 and an Insulin (Zucker rats [6]; Zucker control 176.3 ± 14.7) of 135.1 ± 15.6. For the same compound, the Phospholipid (Zucker rats [6]; Zucker control 340.8 ± 12.0) was 292.1 ± 8.9, the Body weight (Zucker rats [6]; Zucker control 362 ± 13) was 358 ± 15 and the Neutral fat (Zucker rats [6]; Zucker control 928.6 ± 47.7) was 466.3 ± 60.2. For the same compound, the “Blood sugar (full feeding)” value (Zucker rats [6]; Zucker control printed 73.0 ± 14.5) was 174.3 ± 19.0, the “insulin, free fatty acid, neutral fat and phospholipid” value (Zucker rats [6]; Zucker rats) was “significantly reduced” and the “serum cholesterol decreasing effect” value [1] was “carboxymethylascochlorin, and ascofuranone exhibits an effect of decreasing serum”. The “Blood sugar, change vs ob/ob control group” value (C57BL/6j-ob/ob mice) was −32.4%*, the “Body weight, change vs ob/ob control group” value (C57BL/6j-ob/ob mice) was “ns” and the “Cholesterol, change vs ob/ob control group” value (C57BL/6j-ob/ob mice) was “ns”. For the same compound, the “Free fatty acid, change vs ob/ob control group” value (C57BL/6j-ob/ob mice) was −43.6%**, the “Insulin, change vs ob/ob control group” value (C57BL/6j-ob/ob mice) was −33.8% and the “Neutral fat, change vs ob/ob control group” value (C57BL/6j-ob/ob mice) was −61.0%**. It also gave a Free fatty acid (C57BL/6j-ob/ob mice; ob/ob control 1.224 ± 0.072) of 0.690 ± 0.078 mEq/L, a Body weight (C57BL/6j-ob/ob mice; ob/ob control 48.5 ± 0.6) of 47.8 ± 0.6 g and an Insulin (C57BL/6j-ob/ob mice; ob/ob control 73.9 ± 16.7) of 48.9 ± 8.2 μU/mL9. For the same compound, the Neutral fat (C57BL/6j-ob/ob mice; ob/ob control 162.4 ± 16.0) was 63.2 ± 7.2 mg/dL, the Cholesterol (C57BL/6j-ob/ob mice; ob/ob control 268.5 ± 24.2) was 249.7 ± 12.1 mg/dL and the blood sugar (C57BL/6j-ob/ob mice; ob/ob control 360.4 ± 44.9) was 243.8 ± 15.6 mg/dL. The “risk factors except for body weight and blood cholesterol” value (C57BL/6j-ob/ob mice; ob/ob mice) was “significantly reduced”, the Body weight (Lean) was 20.2 ± 0.4 g and the Blood sugar level (Lean) was 194.1 ± 9.5 mg/dL. For the same compound, the “Blood sugar level, change” value (Lean) was “ns”, the “Body weight, change vs control group” value (Lean) was “ns” and the serum insulin (Mouse, db/db mouse) was “added in an amount of about 0.1% to feed and given to an animal, it decreases serum”. For the same compound, the “blood pressure, change vs Zucker control group” value (Zucker rats [7]; 2nd week) was −13.7%(**), the blood pressure (Zucker rats [7]; 2nd week, Zucker control 153 ± 6) was 132 ± 5 and the “blood pressure, change vs Zucker control group” value (Zucker rats [7]; 4th week) was −19.9%(**). The blood pressure (Zucker rats [7]; 4th week, Zucker control 156 ± 7) was 125 ± 6, the “decrease in blood pressure in comparison with the Zucker control group” value (Zucker rats [7]; 2nd week after the initiation of feeding) was 13.7% and the “decrease in blood pressure in comparison with the Zucker control group” value (Zucker rats [7]; 4th week after the initiation of feeding) was 19.9%. The sensitivity to insulin (Db/db mouse, Zucker rat) was “insulin was significantly improved”, the Body weight (db/db mice) was 45.3 ± 1.7 g and the Blood sugar level (db/db mice) was 335.8 ± 8.5 mg/dL. The “Blood sugar level, change” value (db/db mice) was −38.9%** and the “Body weight, change vs control group” value (db/db mice) was “ns”.
